Source: publication PMC8433531 (Proceedings of the National Academy of Sciences of the …, 2021)

Assays:
SARS-CoV-2 [1] = assay type: cell-based
SARS-CoV-2 [2] = experiment: Hit validation across cell systems; assay type: cell-based; settings: Huh7, LNCaP, Caco-2, Vero E6, iAEC2
SARS-CoV-2 [3] = experiment: microbe, parasite or virus in culture; assay type: cell-based; settings: Severe acute respiratory syndrome coronavirus 2, Huh-7, 48 h
SARS-CoV-2 [4] = assay type: cell-based; settings: for antiviral activity against SARS-CoV-2 in iAECs: iAEC2
SARS-CoV-2 [5] = assay type: cell-based; settings: Huh7, MOI of 1, 1,000 nM, 24 and 48 h p.i., versus untreated
SARS-CoV-2 [6] = settings: cited from earlier work
SARS-CoV-2 [7] = experiment: SARS-CoV-2 infection of Caco-2 cells with MEK inhibitors; assay type: cell-based; settings: Caco-2, 10 µM
SARS-CoV-2 [8] = experiment: Viral binding assay on Huh7 cells; assay type: cell-based; settings: lactoferrin 1,250 and 6,250 nM, remdesivir 10 nM, NaClO3 7 d

Molecule: transferrin: transferrin (Sigma-Aldrich; T2036), control to rule out iron chelation
- antiviral activity (iron chelation control) (SARS-CoV-2 [1]; Huh7, 6,250 nM): inactive

Molecule: CCC(CC)COC(=O)[C@H](C)N[P@](=O)(OC[C@H]1O[C@@](C#N)(c2ccc3c(N)ncnn23)[C@H](O)[C@@H]1O)Oc1ccccc1 [Remdesivir]
- efficacy across all tested cell systems (SARS-CoV-2 [2]): maintained efficacy across all tested cell systems
- IC50 (SARS-CoV-2 [3]): 6.7 nM
- antiviral activity at high MOI (SARS-CoV-2 [4]): retained antiviral activity
- antiviral activity against SARS-CoV-2 in iAECs (SARS-CoV-2 [4]): dose-responsive antiviral activity

Molecule: O=C(c1ccc(F)c(F)c1Nc1ccc(I)cc1F)N1CC(O)([C@@H]2CCCCN2)C1 [cobimetinib]
- increase of viral infection (SARS-CoV-2 [1]): greater than twofold increase
- percentage of viral RNA-positive cells (SARS-CoV-2 [5]): increased at 48 h p.i., but not at 24 h p.i.

Molecule: CC(C)[N+]1(C)[C@@H]2CC[C@H]1C[C@@H](OC(=O)C(CO)c1ccccc1)C2 (some centres unmarked) [Ipratropium Bromide]
- efficacy across all tested cell systems (SARS-CoV-2 [2]): maintained efficacy across all tested cell systems
- antiviral activity against SARS-CoV-2 in iAECs (SARS-CoV-2 [4]): dose-responsive antiviral activity

Molecule: CC(C)/N=c1\cc2n(-c3ccc(Cl)cc3)c3ccccc3nc-2cc1Nc1ccc(Cl)cc1 [CLOFAZIMINE]
- viral infection in a hamster model of disease (SARS-CoV-2 [6]): block viral infection
- antiviral activity against SARS-CoV-2 in iAECs (SARS-CoV-2 [4]): dose-responsive antiviral activity

Molecule: CCN(CC)CCCC(C)Nc1ccnc2cc(Cl)ccc12 (centres unmarked) [chloroquine]
- concentrations at which efficacious (SARS-CoV-2 [1]; Huh7, dose-response confirmation): above 1 µM

Molecule: Cc1cc(OCCN2CCOCC2)nn1-c1ccc2ccccc2c1 [S1RA]
- antiviral activity at high MOI (SARS-CoV-2 [4]): retained antiviral activity
- antiviral activity against SARS-CoV-2 in iAECs (SARS-CoV-2 [4]): dose-responsive antiviral activity

Molecule: Cn1cnc2c(F)c(Nc3ccc(Br)cc3F)c(C(=O)NOCCO)cc21 [binimetinib]
- exacerbation of infection (SARS-CoV-2 [7]): exacerbation effect was observed
- increase of viral infection (SARS-CoV-2 [1]): greater than twofold increase

Molecule: CC(NC(=O)[C@H](Cc1ccccc1)NC(=O)OCc1ccccc1)C(=O)CF (some centres unmarked) [Z-FA-FMK]
- efficacy across all tested cell systems (SARS-CoV-2 [2]): maintained efficacy across all tested cell systems

Molecule: CCc1nc(C(N)=O)c(Nc2ccc(N3CCC(N4CCN(C)CC4)CC3)c(OC)c2)nc1NC1CCOCC1 [Gilteritinib]
- antiviral activity against SARS-CoV-2 in iAECs (SARS-CoV-2 [4]): dose-responsive antiviral activity

Molecule: [Na+].[O-][Cl+2]([O-])[O-] [NaClO3]
- SARS-CoV-2 attachment to Huh7 cells (SARS-CoV-2 [8]): reduced

Molecule: CC(=O)Nc1cccc(-n2c(=O)n(C3CC3)c(=O)c3c(Nc4ccc(I)cc4F)n(C)c(=O)c(C)c32)c1 [trametinib]
- exacerbation of infection (SARS-CoV-2 [7]): exacerbation effect was observed
- increase of viral infection (SARS-CoV-2 [1]): greater than twofold increase

Molecule: O=C(NC1CCN(CCCCC2(C(=O)NCC(F)(F)F)c3ccccc3-c3ccccc32)CC1)c1ccccc1-c1ccc(C(F)(F)F)cc1 [Lomitapide]
- efficacy across all tested cell systems (SARS-CoV-2 [2]): maintained efficacy across all tested cell systems
- antiviral activity against SARS-CoV-2 in iAECs (SARS-CoV-2 [4]): dose-responsive antiviral activity
